Data published in US10959428B2, “Hematophagous arthropod repellent composition” (WOOJUNG BIO INC., priority 2017, dated 2021).
“And” between values parts separate entries of the source, which are not always exact repeats. Equal values may be shown once.

Tests used:
[1] = tested on: adult Aedes aegypti; test: cage-in-arm test, complete protection time (CPT); type: in vivo; settings: 4 mg, adult Aedes aegypti
Procedure: For determining the repellency of prepared samples against adults of Aedes aegypti and Aedes albopicus, a cage-in-arm test was carried out as a method for exposure to skin. Namely, on a back of the hand of a rubber glove, a hole with diameter of 5 cm was created, and, onto an exposed back of the testees, various samples prepared by dissolution in 100 μl of ethanol were applied, and then the skin test was carried out. The testees were healthy males between the ages of 21 and 40. The control group was treated with 100 μl of ethanol only. Female adults (5 to 8 day old) of Aedes aegypti or Aedes albopicus (250 to 300 mosquitoes) were added to a cage for growing adult mosquitoes (25×25×25 cm^3), and adapted to the indoor conditions for 12 to 24 hours before starting the test. When the upper arm of the control group is exposed for 1 minute and at least 6 mosquitoes sit on the upper arm or show a bloodsucking behavior, it was determined as sufficient biting pressure, and then the repellency test was carried out. […] The time period between the time point with initial treatment of a material and the time point at which 2 or more mosquitoes continuously sit on the treatment area or show the bloodsucking behavior was defined as complete protection time (CPT). Furthermore, for obtaining the repellency with regard to concentration, exposure was made for a constant time period regardless of the above and the repellency was calculated by using the following formula. Accordingly, the effect was compared among each test samples. All tests were carried out in triplicate. Repellency %=(Number of insects showing bloodsucking behavior in non-treatment group−Number of insects showing bloodsucking behavior in treatment group)/Number of insects showing bloodsucking behavior in non-treatment group)×100 <Tick Repellency>

[2] = tested on: nymphs of Haemaphysalis longicornis; test: finger-tip method, tick repellency; type: in vivo
Procedure: By having the outdoor group of Haemaphysalis longicornis collected from the region around Bongdam-Myon, Hwasung-Shi, Kunggi-Do, South Korea as a subject, the repellency against ticks was determined by employing a finger-tip method. In 50 μl of ethanol, each sample was dissolved in an amount of 2 mg, and then treated on the second nodule of a third finger. […] All tests were carried out in triplicate. Repellency %=(Number of insects showing bloodsucking behavior in non-treatment group−Number of insects showing bloodsucking behavior in treatment group)/Number of insects showing bloodsucking behavior in non-treatment group)×100 […]

[3] = tested on: adult Aedes albopicus; test: cage-in-arm test, repellency and CPT; type: in vivo, Aedes albopictus
Procedure: For determining the repellency of prepared samples against adults of Aedes aegypti and Aedes albopicus, a cage-in-arm test was carried out as a method for exposure to skin. Namely, on a back of the hand of a rubber glove, a hole with diameter of 5 cm was created, and, onto an exposed back of the testees, various samples prepared by dissolution in 100 μl of ethanol were applied, and then the skin test was carried out. The testees were healthy males between the ages of 21 and 40. The control group was treated with 100 μl of ethanol only. Female adults (5 to 8 day old) of Aedes aegypti or Aedes albopicus (250 to 300 mosquitoes) were added to a cage for growing adult mosquitoes (25×25×25 cm^3), and adapted to the indoor conditions for 12 to 24 hours before starting the test. When the upper arm of the control group is exposed for 1 minute and at least 6 mosquitoes sit on the upper arm or show a bloodsucking behavior, it was determined as sufficient biting pressure, and then the repellency test was carried out. With an interval of 30 minutes, by exposing the upper arm, which has been treated with the above composition, for 3 minutes, and, when the adult mosquito sits on the arm for 2 seconds or longer or at least two mosquitoes showing the behavior of mouth injection to skin or direct bloodsucking are found from consecutive tests, the test was stopped. The time period between the time point with initial treatment of a material and the time point at which 2 or more mosquitoes continuously sit on the treatment area or show the bloodsucking behavior was defined as complete protection time (CPT). Furthermore, for obtaining the repellency with regard to concentration, exposure was made for a constant time period regardless of the above and the repellency was calculated by using the following formula. Accordingly, the effect was compared among each test samples. All tests were carried out in triplicate. Repellency %=(Number of insects showing bloodsucking behavior in non-treatment group−Number of insects showing bloodsucking behavior in treatment group)/Number of insects showing bloodsucking behavior in non-treatment group)×100 <Tick Repellency>
For reference, comparison of the mosquito repellency was made by using clove oil as a natural positive control group and DEET as a synthetic positive control group.
To determine the repellency of plant essential oil alone against adult Aedes albopicus and nymphs of Haemaphysalis longicornis, the cage-in-arm test and finger-tip method were carried out, in the same manner as Examples 1-2 and 1-3, with each of 16 kinds of plant essential oil of Table 4.

SMILES: COc1ccc(C=O)cc1OC [3,4-Dimethoxybenzaldehyde, 3,4-dimethoxybenzaldehyde]
- CPT [1]: 70 min
- CPT ([1]; listed as 3,4-demethoxybenzaldehyde): 70 min
- Repellency (mean ± SE, %) ([2]; 0.01 mg/cm^2, 15 min.): 100 ± 0%
- Repellency (mean ± SE, %) ([2]; 0.01 mg/cm^2, 30 min.): 100 ± 0%
- Repellency (mean ± SE, %) ([2]; 0.01 mg/cm^2, 60 min.): 98 ± 2.5%
- Repellency (mean ± SE, %) ([2]; 0.01 mg/cm^2, 90 min.): 98 ± 2.5%
- Repellency (mean ± SE, %) ([2]; 0.01 mg/cm^2, 120 min.): 90 ± 5.8%
- Repellency (mean ± SE, %) ([2]; 0.01 mg/cm^2, 150 min.): 95 ± 2.9%
- Repellency (mean ± SE, %) ([2]; 0.01 mg/cm^2, 180 min.): 95 ± 2.9%
- Repellency (mean ± SE, %) ([2]; 0.01 mg/cm^2, 210 min.): 73 ± 10.3%
- Repellency (mean ± SE, %) ([2]; 0.01 mg/cm^2, 240 min.): 65% and 65 ± 2.9%
- Repellency (mean ± SE, %) ([2]; 0.01 mg/cm^2, 270 min.): 43 ± 4.8%
- Repellency (mean ± SE, %) ([2]; 0.02 mg/cm^2, 15 min.): 100 ± 0%
- Repellency (mean ± SE, %) ([2]; 0.02 mg/cm^2, 30 min.): 100 ± 0%
- Repellency (mean ± SE, %) ([2]; 0.02 mg/cm^2, 60 min.): 100 ± 0%
- Repellency (mean ± SE, %) ([2]; 0.02 mg/cm^2, 90 min.): 98 ± 2.5%
- Repellency (mean ± SE, %) ([2]; 0.02 mg/cm^2, 120 min.): 98 ± 2.5%
- Repellency (mean ± SE, %) ([2]; 0.02 mg/cm^2, 150 min.): 100 ± 0%
- Repellency (mean ± SE, %) ([2]; 0.02 mg/cm^2, 180 min.): 98 ± 2.5%
- Repellency (mean ± SE, %) ([2]; 0.02 mg/cm^2, 210 min.): 95 ± 5.0%
- Repellency (mean ± SE, %) ([2]; 0.02 mg/cm^2, 240 min.): 85 ± 2.9%
- Repellency (mean ± SE, %) ([2]; 0.02 mg/cm^2, 270 min.): 63 ± 4.8%
- Repellency (mean ± SE, %) ([2]; 0.02 mg/cm^2, 300 min.): 48 ± 2.5%
- repellency ([2]; 0.02 mg/cm^2 or higher, 4 hours after the treatment): ≥ 78%
- Repellency (mean ± SE, %) ([2]; 0.05 mg/cm^2, 15 min.): 100 ± 0%
- Repellency (mean ± SE, %) ([2]; 0.05 mg/cm^2, 30 min.): 100 ± 0%
- Repellency (mean ± SE, %) ([2]; 0.05 mg/cm^2, 60 min.): 100 ± 0%
- Repellency (mean ± SE, %) ([2]; 0.05 mg/cm^2, 90 min.): 98 ± 2.5%
- Repellency (mean ± SE, %) ([2]; 0.05 mg/cm^2, 120 min.): 98 ± 2.5%
- Repellency (mean ± SE, %) ([2]; 0.05 mg/cm^2, 150 min.): 85 ± 2.9%
- Repellency (mean ± SE, %) ([2]; 0.05 mg/cm^2, 180 min.): 83 ± 6.3%
- Repellency (mean ± SE, %) ([2]; 0.05 mg/cm^2, 210 min.): 85 ± 6.5%
- Repellency (mean ± SE, %) ([2]; 0.05 mg/cm^2, 240 min.): 78 ± 4.8%
- Repellency (mean ± SE, %) ([2]; 0.05 mg/cm^2, 270 min.): 70 ± 4.1%
- Repellency (mean ± SE, %) ([2]; 0.05 mg/cm^2, 300 min.): 50 ± 4.1%
- Repellency (mean ± SE, %) ([2]; 0.09 mg/cm^2, 15 min.): 100 ± 0%
- Repellency (mean ± SE, %) ([2]; 0.09 mg/cm^2, 30 min.): 100 ± 0%
- Repellency (mean ± SE, %) ([2]; 0.09 mg/cm^2, 60 min.): 100 ± 0%
- Repellency (mean ± SE, %) ([2]; 0.09 mg/cm^2, 90 min.): 98 ± 2.5%
- Repellency (mean ± SE, %) ([2]; 0.09 mg/cm^2, 120 min.): 100 ± 0%
- Repellency (mean ± SE, %) ([2]; 0.09 mg/cm^2, 150 min.): 100 ± 0%
- Repellency (mean ± SE, %) ([2]; 0.09 mg/cm^2, 180 min.): 100 ± 0%
- Repellency (mean ± SE, %) ([2]; 0.09 mg/cm^2, 210 min.): 98 ± 2.5%
- Repellency (mean ± SE, %) ([2]; 0.09 mg/cm^2, 240 min.): 83 ± 2.5%
- Repellency (mean ± SE, %) ([2]; 0.09 mg/cm^2, 270 min.): 73 ± 6.3%
- Repellency (mean ± SE, %) ([2]; 0.09 mg/cm^2, 300 min.): 65 ± 2.9%
- Repellency (mean ± SE, %) ([3]; 0.03 mg/cm^2, 10 minutes): 100 ± 0%
- Repellency (mean ± SE, %) ([3]; 0.03 mg/cm^2, 30 minutes): 75 ± 7.1%
- Repellency (mean ± SE, %) ([3]; 0.03 mg/cm^2, 60 minutes): 54 ± 4.3%
- Repellency (mean ± SE, %) ([3]; 0.10 mg/cm^2, 10 minutes): 100 ± 0%
- Repellency (mean ± SE, %) ([3]; 0.10 mg/cm^2, 30 minutes): 93 ± 4.3%
- Repellency (mean ± SE, %) ([3]; 0.10 mg/cm^2, 60 minutes): 90 ± 4.1%
- Repellency (mean ± SE, %) ([3]; 0.10 mg/cm^2, 90 minutes): 83 ± 8.8%
- Repellency (mean ± SE, %) ([3]; 0.10 mg/cm^2, 120 minutes): 58 ± 5.5%
- Repellency (mean ± SE, %) ([3]; 0.20 mg/cm^2, 10 minutes): 100 ± 0%
- Repellency (mean ± SE, %) ([3]; 0.20 mg/cm^2, 30 minutes): 100 ± 0%
- Repellency (mean ± SE, %) ([3]; 0.20 mg/cm^2, 60 minutes): 99 ± 2.3%
- Repellency (mean ± SE, %) ([3]; 0.20 mg/cm^2, 90 minutes): 94 ± 4.6%
- Repellency (mean ± SE, %) ([3]; 0.20 mg/cm^2, 120 minutes): 91 ± 1.7%
- Repellency (mean ± SE, %) ([3]; 0.20 mg/cm^2, 150 minutes): 83 ± 2.6%
- Repellency (mean ± SE, %) ([3]; 0.20 mg/cm^2, 180 minutes): 65 ± 6.0%
- Repellency (mean ± SE, %) ([3]; 0.25 mg/cm^2, 10 minutes): 100 ± 0%
- Repellency (mean ± SE, %) ([3]; 0.25 mg/cm^2, 30 minutes): 100 ± 0%
- Repellency (mean ± SE, %) ([3]; 0.25 mg/cm^2, 60 minutes): 100 ± 0%
- Repellency (mean ± SE, %) ([3]; 0.25 mg/cm^2, 90 minutes): 100 ± 0%
- Repellency (mean ± SE, %) ([3]; 0.25 mg/cm^2, 120 minutes): 100 ± 0%
- Repellency (mean ± SE, %) ([3]; 0.25 mg/cm^2, 150 minutes): 95 ± 3.2%
- Repellency (mean ± SE, %) ([3]; 0.25 mg/cm^2, 180 minutes): 58 ± 4.4%
- CPT ([3]; 4 mg, adult Aedes albopicus): 50 min

SMILES: COc1cc(C=O)ccc1OCc1ccccc1 [4-Benzyloxy-3-methoxybenzaldehyde, 4-benzyloxy-3-methoxybenzaldehyde]
- CPT [1]: 22 min
